# Reference: US20200281937A1, “USL-311 FOR USE IN THE TREATMENT OF CANCER” (Proximagen, LLC, priority 2017, published 2020)
# What was measured:
# Type in all cases: in vivo
# LL/2 (lung cancer) = experiment: Syngeneic subcutaneous tumour growth inhibition, LL/2; conditions: LL/2 s.c. tumour in mice, 50 mg/kg p.o. 5 days out of 7, vs vehicle group
# Method: (§1) Nine syngeneic cell lines from […] different cancer types (EMT-6 (breast cancer), MBT2 (bladder cancer), CT26 (colorectal cancer), B16F10small, B16BL6 (both melanoma), A20 (lymphoma), LL/2 (lung cancer), Renca (kidney cancer), H22 (liver cancer)) were cultured and when in exponential growth were inoculated in mice subcutaneously with tumour cells in 0.1 mL of PBS for tumour development. After the mean tumour size reached approximately 80-120 mm^3 the mice were treated with 6-{4-[1-(Propan-2-yl)piperidin-4-yl]-1,4-diazepan-1-yl}-N-(pyridin-4-yl)pyridine-2-carboxamide (50 mg/kg p.o. 5 days out of 7). Tumour volumes were measured twice weekly at least in two dimensions using a caliper, and the volume expressed in mm^3 using the formula: V=0.5 a×b^2 where a and b are the long and short diameters of the tumour, respectively. Tumour growth was measured and inhibition of tumour growth reported in comparison to a vehicle treated group. All groups contained 8 mice. If the tumours in a group reached an average volume of 2000 mm^3, the experiment was terminated.
# Renca (kidney cancer) = experiment: Syngeneic subcutaneous tumour growth inhibition, Renca; conditions: Renca s.c. tumour in mice, 50 mg/kg p.o. 5 days out of 7, vs vehicle group
# Method: as §1
# A20 (lymphoma) = experiment: Syngeneic subcutaneous tumour growth inhibition, A20; conditions: A20 s.c. tumour in mice, 50 mg/kg p.o. 5 days out of 7, vs vehicle group
# Method: as §1
# H22 (liver cancer) = experiment: Syngeneic subcutaneous tumour growth inhibition, H22; conditions: H22 s.c. tumour in mice, 50 mg/kg p.o. 5 days out of 7, vs vehicle group
# Method: as §1
# B16F10small (melanoma) = experiment: Syngeneic subcutaneous tumour growth inhibition, B16F10small; conditions: B16F10small s.c. tumour in mice, 50 mg/kg p.o. 5 days out of 7, vs vehicle group
# Method: as §1
# CT26 (colorectal cancer) = experiment: Syngeneic subcutaneous tumour growth inhibition, CT26; conditions: CT26 s.c. tumour in mice, 50 mg/kg p.o. 5 days out of 7, vs vehicle group
# Method: as §1
# B16BL6 (melanoma) = experiment: Syngeneic subcutaneous tumour growth inhibition, B16BL6; conditions: B16BL6 s.c. tumour in mice, 50 mg/kg p.o. 5 days out of 7, vs vehicle group
# Method: as §1
# EMT-6 (breast cancer) = experiment: Syngeneic subcutaneous tumour growth inhibition, EMT-6; conditions: EMT6 s.c. tumour in mice, 50 mg/kg p.o. 5 days out of 7, vs vehicle group
# Method: as §1
# MBT2 (bladder cancer) = experiment: Syngeneic subcutaneous tumour growth inhibition, MBT2; conditions: MBT2 s.c. tumour in mice, 50 mg/kg p.o. 5 days out of 7, vs vehicle group
# Method: as §1
compound,measurement,setting,value
"CC(C)N1CCC(N2CCCN(c3cccc(C(=O)Nc4ccncc4)n3)CC2)CC1 [6-{4-[1-(Propan-2-yl)piperidin-4-yl]-1,4-diazepan-1-yl}-N-(pyridin-4-yl)pyridine-2-carboxamide]",% inhibition of tumour growth relative to control,LL/2 (lung cancer),7.8%
same,% inhibition of tumour growth relative to control,Renca (kidney cancer),0%
same,% inhibition of tumour growth relative to control,A20 (lymphoma),11.6%
same,% inhibition of tumour growth relative to control,H22 (liver cancer),20.1%
same,% inhibition of tumour growth relative to control,B16F10small (melanoma),0%
same,% inhibition of tumour growth relative to control,CT26 (colorectal cancer),32.1%
same,% inhibition of tumour growth relative to control,B16BL6 (melanoma),0%
same,% inhibition of tumour growth relative to control,EMT-6 (breast cancer),79.8%
same,% inhibition of tumour growth relative to control,MBT2 (bladder cancer),29.3%
